We go through 19 compounds from paper PMC7213079, “Hit Identification of New Potent PqsR Antagonists as Inhibitors of Quorum Sensing in Planktonic and Biofilm Grown Pseudomonas aeruginosa” (Frontiers in Chemistry, 2020).

What all share (format): cell-based, Pseudomonas aeruginosa
Assay [1] has as its system PAO1-L mCTX::PpqsA-lux. In words: PpqsA-lux bioreporter assay, strain PAO1-L. To be noted: for activity at 10 µM / IC50: Pseudomonas aeruginosa; for activity at 10 µM: PAO1, read-out: Remaining Activity % (RA%) at 10 μM PAO1-L; for IC50: PAO1, read-out: IC50 PAO1-L; for IC50 PAO1-L: n = 9, NA = not active at 10 μM. The method, then: In silico virtual screening was performed on the PqsR ligand binding domain (LBD) crystal structure [PDB: 4JVI; (Ilangovan et al., [2013])] using the University of Nottingham Managed Chemical Compound Collection (MCCC) containing 85,061 compounds. Molecular docking was performed using both the OpenEye docking (OpenEye Scientific Software Inc. (Hawkins et al., [2007]) and Schrödinger Suite for molecular modeling (Friesner et al., [2004]; Halgren et al., [2004]). A cut off value of the docking score function was set to -9.0 and the resulting high scoring compounds were further examined (Friesner et al., [2004]; Halgren et al., [2004]). This gave a library of around 500 diverse molecules that were evaluated using in vitro screening in a P. aeruginosa PAO1-L mCTX::PPqsA-lux reporter assay (Diggle et al., [2011]).
(§1) To inform the structural variation of 7, crystal structures with the endogenous ligand [4-hydroxy-2-heptylquinoline (NHQ)] and the inhibitor M64 were used (Ilangovan et al., [2013]; Kitao et al., [2018]). The PqsR LBD is dominated by lipophilic interactions, therefore the current SAR exploration mainly focused on varying the aromatic tail substituents and examining the effect of 8-position substitution. The rationale for these modifications was primarily based on molecular docking studies that provided insights into the mode of binding of 7 and approaches intended to improve potency. The substituent at the para- position of the aromatic ring appeared to be crucial for biological activity due to the vital π-π stacking interaction of this group with Tyr^258. […] These strains emit light upon activation of PqsR by the endogenous production of these signal molecules. […] The results of the SAR in this assay highlight the importance of testing any prospective anti-virulence strategy on multiple genetically distinct P. aeruginosa strains as a means to reduce the chance of failure at both pre-clinical and clinical stages (Freschi et al., [2015]).
(§2) PAO1-L Wild type PAO1, Lausanne subline. B.
PAO1-L mCTX::PpqsA- PAO1-L with chromosomal mini-CTX::PpqsA-lux (Soukarieh lux insertion; TcR et al., 2018) […]
(§3) mini-CTX::PpqsA-lux R6K-based mini-CTX suicide plasmid for the (Diggle et chromosomal insertion of a PpqsA-lux al., 2007) transcriptional reporter fusion; TcR
(§4) Biosensor reporter assay:
(§5) Strains PA14 mCTX::PpqsA-lux and PAO1-L mCTX::PpqsA-lux were constructed using plasmid mini-CTX::PpqsA-lux as previously described (Diggle et al., 2007) and the assay was performed according to published procedures (Fletcher et al., 2007). For screening, the compounds were tested at 10 µM concentration which was prepared from 10 mM stock in DMSO. […]

Assay [2] has as its system PA14 mCTX::PpqsA-lux. In words: PpqsA-lux bioreporter assay, strain PA14. Particulars: for IC50: Pseudomonas aeruginosa, PA14, read-out: IC50 PA14; for IC50 PA14: PpqsA-lux bioreporter, n = 9, NA = not active at 10 μM.
Source text: as §1, with “[2015]). […]” for “[2015]).”
(§6) PA14 mCTX::PpqsA-lux PA14 with chromosomal mini-CTX::PpqsA-lux (Soukarieh insertion; TcR et al., 2018) […]
as §3, §4, §5

In assay [3] the test system is PA14. Put plainly: Pyocyanin quantification, PA14. Particulars: PA14, compound at 3 x IC50, 16 h, compared with the control.
Source text: Pyocyanin is an important virulence factor for P. aeruginosa infections and in particular respiratory and urinary tract infections. Pyocyanin is a redox-active phenazine the production of which is regulated via PqsR and PqsE (Hall et al., [2016]; Rampioni et al., [2016]; Higgins et al., [2018]). Therefore, pyocyanin production serves as an indirect readout of the activity of the pqs QS system. […] Compound 40 reduced pyocyanin production by over 80% in both strains in agreement with bioreporter assay results.
Figure 4 Pyocyanin production by Pseudomonas aeruginosa after treatment with pqs inhibitors 8, 14, 23, 34, 25, 26, and 40. Quantification of pyocyanin production after inhibitor treatment at 3 × IC50 for both PAO1-L and PA14. The graph represents the average of three independent experiments carried out in triplicate (n = 9).
as §2
PAO1-L mCTX::PpqsA- PAO1-L with chromosomal mini-CTX::PpqsA-lux (Soukarieh lux insertion; TcR et al., 2018)
PA14 Wild type UCBPP-PA14 (Rahme et
as §6
Pyocyanin quantification: […]
Pyocyanin pigment was extracted into chloroform by mixing 7.5 mL of supernatant with 4.5 mL of chloroform. Pyocyanin w as further extracted into 1.5 mL of 0.2 M HCL which gave a pink/red solution and the absorbance was measured at 520 nm.

Each structure is given as a SMILES string.

Consider `Cn1c2ccc(Br)cc2c2nnc(SCC(=O)Nc3ccc(OC(F)(F)F)cc3)nc21` [Compound 22, 2-((8-Bromo-5-methyl-5H-[1,2,4]triazino[5,6-b]indol-3-yl)thio)-N-(4-(trifluoromethoxy)phenyl)acetamide], for which the activity at 10 µM in assay [1] stood at 23%.
As for `Cn1c2ccccc2c2nnc(SCC(=O)Nc3ccc(Br)cc3)nc21` [Compound 26, N-(4-Bromophenyl)-2-((5-methyl-5H-[1,2,4]triazino[5,6-b]indol-3-yl)thio)acetamide], the IC50 was 1710 ± 260 nM in assay [1] and 1350 ± 190 nM in assay [2].
Take `Cn1c2ccc(Br)cc2c2nnc(SCC(=O)Nc3ccc(Cl)c(Cl)c3)nc21` [Compound 14, 2-((8-Bromo-5-methyl-5H-[1,2,4]triazino[5,6-b]indol-3-yl)thio)-N-(3,4-dichlorophenyl)acetamide]: the half-inhibitory concentration (IC50) in assay [1] turned out to be 3100 ± 520 nM; in assay [2], 7580 ± 820 nM.
With `Cn1c2ccc(Br)cc2c2nnc(SCC(=O)Nc3ccccc3Cl)nc21` [Compound 39, 2-((8-Bromo-5-methyl-5H-[1,2,4]triazino[5,6-b]indol-3-yl)thio)-N-(2-chlorophenyl)acetamide], the “IC50 PAO1-L” value in assay [1] (PpqsA-lux bioreporter) is “inactive”. Further, the “IC50 PA14” value in assay [2] was “inactive”.
`O=C(CSc1nc2cc([N+](=O)[O-])ccc2[nH]1)Nc1ccc(Oc2ccccc2)cc1` [Compound M64, reference compound]: the results for the 50% inhibitory concentration (IC50) in assay [1] and in assay [2] were 320 ± 140 nM and 1220 ± 340 nM, respectively.
Consider `Cn1c2ccc(Br)cc2c2nnc(SCC(=O)Nc3ccc(F)cc3)nc21` [Compound 16, 2-((8-Bromo-5-methyl-5H-[1,2,4]triazino[5,6-b]indol-3-yl)thio)-N-(4-fluorophenyl)acetamide], for which the IC50 in assay [1] amounted to 1360 ± 210 nM.
As to `Cc1ccc(NC(=O)CSc2nnc3c4cc(Br)ccc4n(C)c3n2)cc1` [Compound 18, 2-((8-Bromo-5-methyl-5H-[1,2,4]triazino[5,6-b]indol-3-yl)thio)-N-(p-tolyl)acetamide], the activity at 10 µM in assay [1] was 32%.
Regarding `Cn1c2ccccc2c2nnc(SCC(=O)Nc3cccc(Cl)c3)nc21` [Compound 11, N-(3-Chlorophenyl)-2-((5-methyl-5H-[1,2,4]triazino[5,6-b]indol-3-yl)thio)acetamide], the activity at 10 µM in assay [1] amounted to 34%. Also, the “IC50 PA14” value in assay [2] is “inactive”.
With `Cn1c2ccc(Br)cc2c2nnc(SCC(=O)Nc3cccc(Cl)c3)nc21` [Compound 12, 2-((8-Bromo-5-methyl-5H-[1,2,4]triazino[5,6-b]indol-3-yl)thio)-N-(3-chlorophenyl)acetamide], the activity at 10 µM in assay [1] is 43%. Also, in assay [2], the “IC50 PA14” value was “inactive”.
For `Cn1c2ccccc2c2nnc(SCC(=O)Nc3ccc(OC(F)(F)F)cc3)nc21` [Compound 21, 2-((5-Methyl-5H-[1,2,4]triazino[5,6-b]indol-3-yl)thio)-N-(4(trifluoromethoxy)phenyl)acetamide], the activity at 10 µM in assay [1] was 29%.
`Cn1c2ccccc2c2nnc(SCC(=O)Nc3ccc(Cl)cc3)nc21` [Compound 7, N-(4-Chlorophenyl)-2-((5-methyl-5H-[1,2,4]triazino[5,6-b]indol-3-yl)thio)acetamide]: the half-inhibitory concentration (IC50) in assay [1] was determined as 980 ± 20 nM. The “IC50 PA14” value in assay [2] was “inactive”.
`Cn1c2ccccc2c2nnc(SCC(=O)Nc3ccc(CC#N)cc3)nc21` [Compound 23, N-(4-(Cyanomethyl)phenyl)-2-((5-methyl-5H-[1,2,4]triazino[5,6-b]indol-3-yl)thio)acetamide]: in assay [3], the “inhibition of pyocyanin production” value is “most potent inhibitor”. In addition, the 50% inhibitory concentration (IC50) in assay [1] was 620 ± 100 nM; in assay [2], 2000 ± 170 nM.
With `Cn1c2ccc(Br)cc2c2nnc(SCC(=O)Nc3ccc(Br)cc3)nc21` [Compound 27, 2-((8-Bromo-5-methyl-5H-[1,2,4]triazino[5,6-b]indol-3-yl)thio)-N-(4-bromophenyl)acetamide], in assay [1], the IC50 is 23000 ± 9000 nM. Also, in assay [2], the “IC50 PA14” value was “inactivity”.
Take `Cn1c2ccccc2c2nnc(SCC(=O)Nc3ccc(Oc4ncccn4)cc3)nc21` [Compound 28, 2-((5-Methyl-5H-[1,2,4]triazino[5,6-b]indol-3-yl)thio)-N-(4-(pyrimidin-2yloxy)phenyl)acetamide]: the IC50 came to 1040 ± 120 nM in assay [1] and 1330 ± 330 nM in assay [2].
With `Cn1c2ccccc2c2nnc(SCC(=O)Nc3ccc(Oc4ccccc4)cc3)nc21` [Compound 24, 2-((5-Methyl-5H-[1,2,4]triazino[5,6-b]indol-3-yl)thio)-N-(4-phenoxyphenyl)acetamide], the “fold higher activity in PAO1-L compared to 7” value in assay [1] (PpqsA-lux bioreporter) was ~2.5 fold. Besides, the IC50 was 380 ± 60 nM in assay [1] and 350 ± 60 nM in assay [2].
Consider `Cn1c2ccccc2c2nnc(SCC(=O)Nc3ccccc3Cl)nc21` [Compound 38, N-(2-Chlorophenyl)-2-((5-methyl-5H-[1,2,4]triazino[5,6-b]indol-3-yl)thio)acetamide], for which, in assay [1] (PpqsA-lux bioreporter), the “IC50 PAO1-L” value was “inactive”. In addition, the “IC50 PA14” value in assay [2] was “inactive”.
Turning to `Cc1ccc(NC(=O)CSc2nnc3c4ccccc4n(C)c3n2)cc1` [Compound 17, 2-((5-Methyl-5H-[1,2,4]triazino[5,6-b]indol-3-yl)thio)-N-(p-tolyl)acetamide], in assay [1], the IC50 stood at 1860 ± 10 nM.
On to `Cn1c2ccc(Br)cc2c2nnc(SCC(=O)Nc3ccc(Cl)cc3)nc21` [Compound 8, 2-((8-Bromo-5-methyl-5H-[1,2,4]triazino[5,6-b]indol-3-yl)thio)-N-(4-chlorophenyl)acetamide], for which the IC50 in assay [1] was determined as 1990 ± 230 nM; in assay [2] it was 1600 ± 160 nM.
As to `Cn1c2ccc(Br)cc2c2nnc(SCC(=O)Nc3ccc(Oc4ccccc4)cc3)nc21` [Compound 25, 2-((8-Bromo-5-methyl-5H-[1,2,4]triazino[5,6-b]indol-3-yl)thio)-N-(4-phenoxyphenyl)acetamide], the IC50 in assay [1] came to 4360 ± 420 nM.
